Where two headings read alike, the source gives them in different places. No end group written: not given here.
How the values were obtained:
Assay in all cases: biochemical
Format in all cases: binding
HLA-DR DRB1*0101 (DR1) = HLA-DR DRB1*0101 (DR1) (Homo sapiens, UniProt P01903+P01911, A100R/D57E/F55L/F60I/F76Y/I96L/L162R/M171V/P40L/Q125E/R42F/V115G/Y59C)
HLA-DR DRB1*0401 (DR4) = HLA-DR DRB1*0401 (DR4) (Homo sapiens, UniProt P01903+P01911, A100K/A169T/F76Y/I96L/K127E/L162R/M171V/N62H/P40V/Q125Y/R42H/S133A/S149N/S66Y/V115G/V209L/W38E)
HLA-DR DRB1*0701 (DR7) = HLA-DR DRB1*0701 (DR7) (Homo sapiens, UniProt P01903+P01911, A100R/A102G/A103Q/D57E/D86V/E43K/F76Y/K127E/L162R/M171V/P40G/Q125H/Q99D/R33Q/R42Y/R54Q/S133A/S66F/T210M/V115G/Y107V/Y59L/Y89S); settings: DRB1 *0701
HLA-DR DRB4*0101 (DR53) = HLA-DR DRB4*0101 (DR53) (Homo sapiens, UniProt P01903+P13762, G164S)
HLA-DR DRB1*1501 (DR15) = HLA-DR DRB1*1501 (DR15) (Homo sapiens, UniProt P01903+P01911)
HLA-DR DRB5*0101 (DR51) = HLA-DR DRB5*0101 (DR51) (Homo sapiens, UniProt P01903+Q30154)
HLA-DR DRB1*1302 (DR13) = HLA-DR DRB1*1302 (DR13) (Homo sapiens, UniProt P01903+P01911, A100E/A169T/K41T/L162R/M171V/P40S/Q125H/Q178H/Q39Y/Q99D/R42S/S66N/T262R/V115G/W38E/Y61H)
HLA-DR DRB1*1302 (DR13), sequence (P01903 26-254 limits assumed, other chains not shown): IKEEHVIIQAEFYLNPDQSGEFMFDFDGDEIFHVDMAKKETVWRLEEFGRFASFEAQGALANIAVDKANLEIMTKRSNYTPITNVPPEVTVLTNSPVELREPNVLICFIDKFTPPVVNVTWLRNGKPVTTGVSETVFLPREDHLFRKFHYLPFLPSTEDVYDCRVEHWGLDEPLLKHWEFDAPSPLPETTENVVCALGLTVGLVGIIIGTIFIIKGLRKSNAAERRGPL

AAKGIKIGFGIFA
IC50 (HLA-DR DRB1*0101 (DR1); DRB1 *0101): ≥ 50000 nM | IC50 (HLA-DR DRB1*0401 (DR4); DRB1 *0401): 471 nM

AFLRAAAAAAFAA
IC50 (HLA-DR DRB1*0101 (DR1); DRB1 *0101): ≥ 50000 nM | IC50 (HLA-DR DRB1*0401 (DR4); DRB1 *0401): 400 nM

C[C@H](N)C(=O)N[C@@H](C)C(=O)N[C@@H](C)C(=O)N[C@@H](C)C(=O)N[C@@H](C)C(=O)N[C@@H](C)C(=O)N[C@@H](C)C(=O)N[C@@H](C)C(=O)N[C@@H](C)C(=O)N[C@@H](C)C(=O)N[C@@H](C)C(=O)N[C@@H](C)C(=O)N[C@@H](CC(N)=O)C(=O)O
IC50 (HLA-DR DRB1*0101 (DR1); DRB1 *0101): ≥ 50000 nM | IC50 (HLA-DR DRB1*0401 (DR4); DRB1 *0401): 500 nM

FFKNIVTFFKNIVT
IC50 (HLA-DR DRB1*0101 (DR1); DRB1 *0101): ≥ 50000 nM | IC50 (HLA-DR DRB1*0401 (DR4); DRB1 *0401): > 667 nM | IC50 (HLA-DR DRB1*0701 (DR7)): > 12500 nM

AAAKAAAAFAAAA
IC50 (HLA-DR DRB1*0101 (DR1); DRB1 *0101): ≥ 50000 nM

FSYFPSI [FSYFPSI]
IC50 (HLA-DR DRB1*0101 (DR1); DRB1 *0101): ≥ 50000 nM

PQPFRPQQP
IC50 (HLA-DR DRB4*0101 (DR53); DRB4 *0101): 19 nM

CC(C)C[C@H](NC(=O)[C@H](CCCCN)NC(=O)[C@H](C)NC(=O)[C@@H](NC(=O)[C@H](CCCCN)NC(=O)[C@H](CCCNC(=N)N)NC(=O)[C@H](CO)NC(=O)[C@H](CC(C)C)NC(=O)[C@H](C)NC(=O)[C@H](C)NC(=O)[C@H](CCC(N)=O)NC(=O)[C@H](Cc1ccccc1)NC(=O)[C@H](CCC(=O)O)NC(=O)[C@H](CO)NC(=O)[C@@H](N)CCC(=O)O)C(C)C)C(=O)O
IC50 (HLA-DR DRB1*0401 (DR4); DRB1 *0401): 579 nM

AAAAASAAAAAAA
IC50 (HLA-DR DRB1*0101 (DR1); DRB1 *0101): ≥ 50000 nM | IC50 (HLA-DR DRB1*0401 (DR4); DRB1 *0401): 235 nM

LGQQQPFPPQ
IC50 (HLA-DR DRB4*0101 (DR53); DRB4 *0101): 151 nM

PFRPQQPYPQ
IC50 (HLA-DR DRB4*0101 (DR53); DRB4 *0101): 42 nM

QKWAAVVVPS
IC50 (HLA-DR DRB1*0101 (DR1); DRB1 *0101): ≥ 50000 nM | IC50 (HLA-DR DRB1*0401 (DR4); DRB1 *0401): 1000 nM

SAFLESQSMNKIGDD
IC50 (HLA-DR DRB1*0101 (DR1); DRB1 *0101): 549 nM | IC50 (HLA-DR DRB1*0701 (DR7)): 523 nM | IC50 (HLA-DR DRB1*1501 (DR15); DRBI *1501): 18700 nM | IC50 (HLA-DR DRB4*0101 (DR53); DRB4 *0101): 302 nM | IC50 (HLA-DR DRB5*0101 (DR51); DRB5 *0101): 243 nM

PQPFRPQQPYPK
IC50 (HLA-DR DRB4*0101 (DR53); DRB4 *0101): 22 nM

TWQLNGEELIQDM
IC50 (HLA-DR DRB1*0101 (DR1); read-out: DRB1 *0101): ≥ 50000 nM

LEDLLMGTLGIVCPI
IC50 (HLA-DR DRB1*1302 (DR13); read-out: DRBI *1302): 1690 nM | IC50 (HLA-DR DRB4*0101 (DR53); read-out: DRB4 *0101): 1800 nM | IC50 (HLA-DR DRB5*0101 (DR51); read-out: DRB5 *0101): 9480 nM

AAFFFFFGGGGGA
IC50 (HLA-DR DRB1*0101 (DR1); DRB1 *0101): ≥ 50000 nM | IC50 (HLA-DR DRB1*0401 (DR4); DRB1 *0401): 800 nM

(43)AAIGGIFIFKKDA
IC50 (HLA-DR DRB1*0401 (DR4); read-out: DRB1 *0401): 800 nM

GRLEYCLKDRRNFDI
IC50 (HLA-DR DRB5*0101 (DR51); DRB5 *0101): 64700 nM

C[C@H](N)C(=O)N[C@@H](CO)C(=O)N[C@@H](C)C(=O)N[C@@H](C)C(=O)N[C@@H](C)C(=O)N[C@@H](C)C(=O)N[C@@H](C)C(=O)N[C@@H](C)C(=O)N[C@@H](C)C(=O)N[C@@H](C)C(=O)N[C@@H](C)C(=O)N[C@@H](C)C(=O)N[C@@H](C)C(=O)O
IC50 (HLA-DR DRB1*0101 (DR1); DRB1 *0101): ≥ 50000 nM

AFAAAKTAA(72)
IC50 (HLA-DR DRB1*0101 (DR1); read-out: DRB1 *0101): 5000 nM

MIMIKFMGVIYIMII [MJMIKFMGVIYIMII]
IC50 (HLA-DR DRB1*1302 (DR13); DRBI *1302): 102 nM | IC50 (HLA-DR DRB1*1501 (DR15); DRBI *1501): 23600 nM

IRNLALQTLP
IC50 (HLA-DR DRB4*0101 (DR53); DRB4 *0101): 3 nM

(43)AAIGFFFFKKGIA
IC50 (HLA-DR DRB1*0401 (DR4); read-out: DRB1 *0401): 258 nM

RIVYRDNNPYGVCIM
IC50 (HLA-DR DRB1*1501 (DR15); read-out: DRBI *1501): 821 nM | IC50 (HLA-DR DRB4*0101 (DR53); read-out: DRB4 *0101): 1400 nM | IC50 (HLA-DR DRB5*0101 (DR51); read-out: DRB5 *0101): 20500 nM
